Measurements taken from US20250129430A1, “HIGH ATP-AFFINITY PROTEIN AS THERAPEUTIC TARGET FOR INTRACTABLE CANCER MOLECULAR SUBTYPES AND INHIBITOR THEREOF” (VeraVerse Co., Ltd., priority 2021, published 2025).

Assays:
Test in all cases: Cell viability drug screen, 12-point dose-response AUC
Type in all cases: cell-based, human
FU97 = test system: FU97; parameters: Average Area Under the Viability Curve (AUC), AUC norm value: scale not given here; conditions: FU97 cells, 72 hours; for area under the viability curve (AUC), normalized: 12-point dose-response
Outline: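 Trapezoidal AUC of a 12-point, DMSO-normalized dose-response curve. Luminescent viability was measured after 72 h of exposure at 37° C to half-log serial dilutions (0.5% DMSO control), dosed 24 h after plating FU97 cells at 5×10^3 per well.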

Hs746T = conditions: 72 hours; for area under the viability curve (AUC), normalized: Hs746T cells, 12-point dose-response
Outline: (§1)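 AUC values represent the area under DMSO-normalized 12-point curves, computed by trapezoid rule and averaged over repeated experiments. Each EMT-type gastric line was exposed to half-log serial concentrations for 72 h at 37 °C, and viability was measured with a Glo luminescence kit.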

KATO3 = KATO3 cells, 72 hours; for area under the viability curve (AUC), normalized: 12-point dose-response
Outline: as §1

MKN45 = conditions: 72 hours; for area under the viability curve (AUC), normalized: MKN45 cells, 12-point dose-response
Outline: (§2)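 AUC comes from 12-point half-log dose–response curves, normalized to DMSO-treated cells and integrated trapezoidally, repeats averaged. Luminescent viability read after 72 h compound exposure at 37 °C; cells plated 5×10^3 per well 24 h before dosing.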

YCC2 = YCC2 cells, 72 hours; for area under the viability curve (AUC), normalized: 12-point dose-response
Outline: as §1

SNU638 = SNU638 cells, 72 hours; for area under the viability curve (AUC), normalized: 12-point dose-response
Outline: as §1

NCI_N87 = NCI_N87 cells, 72 hours; for area under the viability curve (AUC), normalized: 12-point dose-response
Outline: as §1

SK4 = conditions: 72 hours; for area under the viability curve (AUC), normalized: SK4 cells, 12-point dose-response
Outline: as §1

SNU668 = conditions: 72 hours; for area under the viability curve (AUC), normalized: SNU668 cells, 12-point dose-response
Outline: as §1

SNU216 = conditions: 72 hours; for area under the viability curve (AUC), normalized: SNU216 cells, 12-point dose-response
Outline: as §2

SNU1967 = SNU1967 cells, 72 hours; for area under the viability curve (AUC), normalized: 12-point dose-response
Outline: as §1

NCC24 = NCC24 cells, 72 hours; for area under the viability curve (AUC), normalized: 12-point dose-response
Outline: as §1

SNU719 = SNU719 cells, 72 hours; for area under the viability curve (AUC), normalized: 12-point dose-response
Outline: as §2

NCC59 = NCC59 cells, 72 hours; for area under the viability curve (AUC), normalized: 12-point dose-response
Outline: as §1

MKN74 = MKN74 cells, 72 hours; for area under the viability curve (AUC), normalized: 12-point dose-response
Outline: as §2

NCC19 = NCC19 cells, 72 hours; for area under the viability curve (AUC), normalized: 12-point dose-response
Outline: as §1

NCC20 = NCC20 cells, 72 hours; for area under the viability curve (AUC), normalized: 12-point dose-response
Outline: as §1

SNU1 = SNU1 cells, 72 hours; for area under the viability curve (AUC), normalized: 12-point dose-response
Outline: as §1

SNU1750 = conditions: 72 hours; for area under the viability curve (AUC), normalized: SNU1750 cells, 12-point dose-response
Outline: as §1

SNU484 = conditions: 72 hours; for area under the viability curve (AUC), normalized: SNU484 cells, 12-point dose-response
Outline: as §1

AGS = conditions: 72 hours; for area under the viability curve (AUC), normalized: AGS cells, 12-point dose-response
Outline: as §2

YCC3 = YCC3 cells, 72 hours; for area under the viability curve (AUC), normalized: 12-point dose-response
Outline: as §1

MKN28 = MKN28 cells, 72 hours; for area under the viability curve (AUC), normalized: 12-point dose-response
Outline: as §1

SNU620 = SNU620 cells, 72 hours; for area under the viability curve (AUC), normalized: 12-point dose-response
Outline: as §1

YCC11 = conditions: 72 hours; for area under the viability curve (AUC), normalized: YCC11 cells, 12-point dose-response
Outline: as §1

OCUM1 = OCUM1 cells, 72 hours; for area under the viability curve (AUC), normalized: 12-point dose-response
Outline: as §1

SNU16 = SNU16 cells, 72 hours; for area under the viability curve (AUC), normalized: 12-point dose-response
Outline: as §1

SNU601 = SNU601 cells, 72 hours; for area under the viability curve (AUC), normalized: 12-point dose-response
Outline: as §1

MKN1 = MKN1 cells, 72 hours; for area under the viability curve (AUC), normalized: 12-point dose-response
Outline: as §1

In the case of `OC1(c2ccc(Cl)c(C(F)(F)F)c2)CCN(CCCC(c2ccc(F)cc2)c2ccc(F)cc2)CC1` [Penfluridol], the “Average Area Under the Viability Curve (AUC), AUC norm value” (“Average Area Under the Viability Curve” below) (FU97) is reported as 0.09295, the “Average Area Under the Viability Curve” value (Hs746T; Hs746T cells (SEM subtype)) is reported as 0.2822 and the “Average Area Under the Viability Curve” value (KATO3) is reported as 0. The “Average Area Under the Viability Curve” value (MKN45; MKN45 cells (non-SEM subtype)) was 0.9981, the “Average Area Under the Viability Curve” value (YCC2) was −0.07658 and the “Average Area Under the Viability Curve” value (SNU638) was −1.32. The “Average Area Under the Viability Curve” value (NCI_N87) was 0.3682, the “Average Area Under the Viability Curve” value (SK4; SK4 cells (SEM subtype)) was −0.5075 and the “Average Area Under the Viability Curve” value (SNU668; SNU668 cells (SEM subtype)) was 0.00275. The “Average Area Under the Viability Curve” value (SNU216; SNU216 cells (non-SEM subtype)) was −0.5069, the “Average Area Under the Viability Curve” value (SNU1967) was −0.08879 and the “Average Area Under the Viability Curve” value (NCC24) was 0.5023. The “Average Area Under the Viability Curve” value (SNU719) was 0.3303, the “Average Area Under the Viability Curve” value (NCC59) was 0.3439 and the “Average Area Under the Viability Curve” value (MKN74) was −1.133. For the same molecule, the “Average Area Under the Viability Curve” value (NCC19) was 0.6239, the “Average Area Under the Viability Curve” value (NCC20) was −0.8471 and the “Average Area Under the Viability Curve” value (SNU1) was 0.8479. The “Average Area Under the Viability Curve” value (SNU1750; SNU1750 cells (SEM subtype)) was −0.03209, the “Average Area Under the Viability Curve” value (SNU484; SNU484 cells (SEM subtype)) was −0.3957 and the “Average Area Under the Viability Curve” value (AGS; AGS cells (non-SEM subtype)) was −0.6917. The “Average Area Under the Viability Curve” value (YCC3) was 0.4477, the “Average Area Under the Viability Curve” value (MKN28) was −0.6097 and the “Average Area Under the Viability Curve” value (SNU620) was 0.04726. For the same molecule, the “Average Area Under the Viability Curve” value (YCC11; YCC11 cells (SEM subtype)) was −0.5164, the “Average Area Under the Viability Curve” value (OCUM1) was 0.2066 and the “Average Area Under the Viability Curve” value (SNU16) was −1.2587. For the same molecule, the “Average Area Under the Viability Curve” value (SNU601) was 0.6748 and the “Average Area Under the Viability Curve” value (MKN1) was −0.01646.
`CCCCc1nc2cc(/C=C/C(=O)NO)ccc2n1CCN(CC)CC` [SB939 (Pracinostat), Pracinostat] was tested, and the “area under the viability curve (AUC), normalized” value (“area … normalized” below) (FU97) was 0, the “area … normalized” value (Hs746T) was 0.7098 and the “area … normalized” value (KATO3) was 0.2173. The “area … normalized” value (MKN45) was 1.672, the “area … normalized” value (YCC2) was −0.02045 and the “area … normalized” value (SNU638) was −0.278. For the same molecule, the “area … normalized” value (NCI_N87) was −0.6724, the “area … normalized” value (SK4) was −0.454 and the “area … normalized” value (SNU668) was 0.519. The “area … normalized” value (SNU216) was 0.6217, the “area … normalized” value (SNU1967) was −0.4581 and the “area … normalized” value (NCC24) was −1.137. For the same molecule, the “area … normalized” value (SNU719) was 2.187, the “area … normalized” value (NCC59) was 1.053 and the “area … normalized” value (MKN74) was 0.3806. For the same molecule, the “area … normalized” value (NCC19) was 0.6538, the “area … normalized” value (NCC20) was −0.08068 and the “area … normalized” value (SNU1) was −1.4. For the same molecule, the “area … normalized” value (SNU1750) was −1.156, the “area … normalized” value (SNU484) was 0.208 and the “area … normalized” value (AGS) was −1.799. For the same molecule, the “area … normalized” value (YCC3) was 1.403, the “area … normalized” value (MKN28) was −0.5866 and the “area … normalized” value (SNU620) was −1.199. For the same molecule, the “area … normalized” value (YCC11) was −0.768, the “area … normalized” value (OCUM1) was 0.7195 and the “area … normalized” value (SNU16) was −1.067. The “area … normalized” value (SNU601) was 0.1827 and the “area … normalized” value (MKN1) was 0.232.
For `Cc1ccc(C(=O)N(CCCN)[C@@H](c2oc3cc(Cl)ccc3c(=O)c2Cc2ccccc2)C(C)C)cc1` [SB 743921], the “area … normalized” value (FU97) was 0.8407, the “area … normalized” value (Hs746T) was 1.359 and the “area … normalized” value (KATO3) was 3.189. The “area … normalized” value (MKN45) was 2.818, the “area … normalized” value (YCC2) was 0.2048 and the “area … normalized” value (SNU638) was −0.2572. For the same molecule, the “area … normalized” value (NCI_N87) was −1.205, the “area … normalized” value (SK4) was −0.9769 and the “area … normalized” value (SNU668) was 0. The “area … normalized” value (SNU216) was 2.438, the “area … normalized” value (SNU1967) was 0.8572 and the “area … normalized” value (NCC24) was −2.238. For the same molecule, the “area … normalized” value (SNU719) was 2.115, the “area … normalized” value (NCC59) was 2.285 and the “area … normalized” value (MKN74) was 0.00599. The “area … normalized” value (NCC19) was 1.296, the “area … normalized” value (NCC20) was −1.288 and the “area … normalized” value (SNU1) was −0.9587. For the same molecule, the “area … normalized” value (SNU1750) was 0.00014, the “area … normalized” value (SNU484) was −1.3076 and the “area … normalized” value (AGS) was −2.366. For the same molecule, the “area … normalized” value (YCC3) was 2.421, the “area … normalized” value (MKN28) was −1.699 and the “area … normalized” value (SNU620) was −2.366. For the same molecule, the “area … normalized” value (YCC11) was −1.353, the “area … normalized” value (OCUM1) was 1.653 and the “area … normalized” value (SNU16) was −1.454. For the same molecule, the “area … normalized” value (SNU601) was −1.703 and the “area … normalized” value (MKN1) was −1.406.
